Reference: patent US9409905B2, “Antibacterial compounds and methods for use” (PTC THERAPEUTICS, INC., priority 2011, dated 2016)
Values after ≈ are worked out from the molar mass of the structure shown.

Columns and labels:
[1] = test system: Escherichia coli (E. coli) BAS849; experiment: Antibacterial activity, microbroth dilution MIC (Table 1); format: cell-based; conditions: microbroth dilution, super sensitive Gram-negative E. coli BAS849, read-out: MIC, BAS849
How it was run: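 Broth microdilution; endpoint = no macroscopic growth; value = lowest inhibiting concn, μg/mL.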

[2] = test system: Staphylococcus aureus (S. aureus) 29213; experiment: as above; format: cell-based; conditions: microbroth dilution, Gram-positive S. aureus 29213, read-out: MIC, 29213
How it was run: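 In a microbroth dilution test, the minimum inhibitory concentration was defined as the lowest compound level preventing growth seen by eye, and was given in μg/mL.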

E. coli 25922 = experiment: as above; format: cell-based, Escherichia coli; conditions: Escherichia coli; microbroth dilution; control Gram-negative E. coli 25922 strain; read-out: MIC, 25922
How it was run: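 Values are MICs (μg/mL): the smallest drug amount at which macroscopically visible bacterial growth is absent under assay conditions, from a microdilution method in broth.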

E. coli LZ3111 = experiment: Antibacterial activity, MIC, quinolone resistant strain (Table 2); format: cell-based; conditions: Escherichia coli, LZ3111, read-out: MIC LZ3111
How it was run: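 Lowest concentration giving no macroscopically visible growth was taken as the MIC (μg/mL) after microbroth dilution testing.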

E. coli ELZ4000 = experiment: Antibacterial activity, MIC, multi-drug resistant clinical isolate (Table 3); format: cell-based; conditions: Escherichia coli, ELZ4000, read-out: MIC ELZ4000
Description: (§1) The antibacterial activity from a microbroth dilution method may be presented as the minimum inhibitory concentration (MIC in μg/mL). The MIC value is the lowest concentration of drug which prevents macroscopically visible growth under test conditions.
(§2) Antibacterial activity of test compounds against E. coli ELZ4000 and E. coli ELZ4251 multi-drug resistant clinical isolates is shown in Table 3.

E. coli ELZ4251 = experiment: as above; format: cell-based; conditions: Escherichia coli
Description: as §1, §2

[3] = test system: Pseudomonas aeruginosa (P. aeruginosa) 27853; experiment: Antibacterial activity, MIC (Table 5); format: cell-based; conditions: P. aeruginosa 27853, read-out: MIC, 27853
How it was run: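 MIC in μg/mL from broth microdilution; endpoint is the lowest drug level giving no visible growth.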

[4] = test system: Acinetobacter baumannii (A. baumannii) BAA747; experiment: Antibacterial activity, MIC (Table 4); format: cell-based; conditions: A. baumannii BAA747, read-out: MIC, BAA747
How it was run: (§3)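 MIC (μg/mL) by microbroth dilution, taken as the lowest drug concentration preventing macroscopically visible growth. MXX strains are multi-drug resistant clinical isolates.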

[5] = test system: Klebsiella pneumoniae (K. pneumoniae) 35657; experiment: Antibacterial activity, MIC (Table 4); format: cell-based; conditions: K. pneumoniae 35657, read-out: MIC, 35657
How it was run: as §3

A. baumannii MXX2240 = experiment: Antibacterial activity, MIC, resistant strain (Table 4); format: cell-based; conditions: Acinetobacter baumannii, MXX2240; resistant A. baumannii MMX2240, multi-drug resistant clinical isolate; read-out: MIC, MMX2240
How it was run: as §3

K. pneumoniae MXX1232 = experiment: as above; format: cell-based; conditions: Klebsiella pneumoniae, MXX1232; resistant K. pneumoniae MMX1232, multi-drug resistant clinical isolate; read-out: MIC, MMX1232
How it was run: as §3

Row | SMILES | MIC [1] [µg/mL] | MIC [2] [µg/mL] | MIC (E. coli 25922) [µg/mL] | MIC (E. coli LZ3111) [µg/mL] | MIC (E. coli ELZ4000) [µg/mL] | MIC (E. coli ELZ4251) [µg/mL] | MIC [3] [µg/mL] | MIC [4] [µg/mL] | MIC [5] [µg/mL] | MIC (A. baumannii MXX2240) [µg/mL] | MIC (K. pneumoniae MXX1232) [µg/mL]
1 | CCc1c(-c2ccc3ncccc3c2)[nH]c(=O)c(C(=O)O)c1O [Cpd 20, 5-ethyl-4-hydroxy-2-oxo-6-(quinolin-6-yl)-1,2-dihydropyridine-3-carboxylic acid] | 1 to 3.5 (≈ 3.22 to 11.3 µM) | 12.5 to 150 (≈ 40.3 to 483 µM) | 12.5 to 150 (≈ 40.3 to 483 µM) | 3.5 to 12.5 (≈ 11.3 to 40.3 µM) | 12.5 to 150 (≈ 40.3 to 483 µM) | 3.5 to 12.5 (≈ 11.3 to 40.3 µM) | 12.5 to 150 (≈ 40.3 to 483 µM) |  |  |  | 
2 | CCc1c(-c2ccc3c(c2)cc(CN2CC4CC2CN4)n3C)[nH]c(=O)c(C(=O)O)c1O (centres unmarked) [Cpd 182, 6-(2-(2,5-diazabicyclo[2.2.1]heptan-2-ylmethyl)-1-methyl-1H-indol-5-yl)-5-ethyl-4-hydroxy-2-oxo-1,2-dihydropyridine-3-carboxylic acid] | 1 to 3.5 (≈ 2.37 to 8.28 µM) | 12.5 to 150 (≈ 29.6 to 355 µM) | 12.5 to 150 (≈ 29.6 to 355 µM) | 3.5 to 12.5 (≈ 8.28 to 29.6 µM) | 12.5 to 150 (≈ 29.6 to 355 µM) | 12.5 to 150 (≈ 29.6 to 355 µM) | 12.5 to 150 (≈ 29.6 to 355 µM) |  |  |  | 
3 | CCc1c(-c2ccc3c(c2)cc(CN(C)C2CCCC2)n3C)[nH]c(=O)c(C(=O)O)c1O.Cl [Cpd 211, 6-(2-((cyclopentyl(methyl)amino)methyl)-1-methyl-1H-indol-5-yl)-5-ethyl-4-hydroxy-2-oxo-1,2-dihydropyridine-3-carboxylic acid hydrochloride] | < 1 | 3.5 to 12.5 | 1 to 3.5 | 3.5 to 12.5 | 12.5 to 150 | 12.5 to 150 | 12.5 to 150 |  |  |  | 
4 | CCc1c(-c2ccc3c(c2)cc(CNCc2ccccn2)n3C)[nH]c(=O)c(C(=O)O)c1O.Cl [Cpd 219, 5-ethyl-4-hydroxy-6-(1-methyl-2-((pyridin-2-ylmethylamino)methyl)-1H-indol-5-yl)-2-oxo-1,2-dihydropyridine-3-carboxylic acid hydrochloride] | < 1 | 1 to 3.5 | 1 to 3.5 | 3.5 to 12.5 | 12.5 to 150 | 12.5 to 150 | 12.5 to 150 |  |  |  | 
5 | CCc1c(-c2ccc3c(c2)cc(CNCC2CCOCC2)n3C)[nH]c(=O)c(C(=O)O)c1O.Cl [Cpd 227, 5-ethyl-4-hydroxy-6-(1-methyl-2-(((tetrahydro-2H-pyran-4-yl)methylamino)methyl)-1H-indol-5-yl)-2-oxo-1,2-dihydropyridine-3-carboxylic acid hydrochloride] | < 1 | 3.5 to 12.5 | 1 to 3.5 | 12.5 to 150 | 12.5 to 150 | 12.5 to 150 | 12.5 to 150 |  |  |  | 
6 | CCc1c(-c2ccc3c(c2)cc(CN2CCCNCC2)n3C)[nH]c(=O)c(C(=O)O)c1O.Cl.Cl [Cpd 239, 6-(2-((1,4-diazepan-1-yl)methyl)-1-methyl-1H-indol-5-yl)-5-ethyl-4-hydroxy-2-oxo-1,2-dihydropyridine-3-carboxylic acid dihydrochloride] | 1 to 3.5 | 12.5 to 150 | 3.5 to 12.5 | 3.5 to 12.5 | 12.5 to 150 | 3.5 to 12.5 | 12.5 to 150 |  |  |  | 
7 | CCc1c(-c2ccc3c(c2)cc(CNC2CCCCC2)n3C)[nH]c(=O)c(C(=O)O)c1O.Cl [Cpd 241, 6-(2-((cyclohexylamino)methyl)-1-methyl-1H-indol-5-yl)-5-ethyl-4-hydroxy-2-oxo-1,2-dihydropyridine-3-carboxylic acid hydrochloride] | < 1 | 3.5 to 12.5 | < 1 | 3.5 to 12.5 | 12.5 to 150 | 3.5 to 12.5 | 12.5 to 150 |  |  |  | 
8 | CCc1c(-c2ccc3c(c2)cc(CN2CCCC(O)C2)n3C)[nH]c(=O)c(C(=O)O)c1O (centres unmarked) [Cpd 255, 5-ethyl-4-hydroxy-6-(2-((3-hydroxypiperidin-1-yl)methyl)-1-methyl-1H-indol-5-yl)-2-oxo-1,2-dihydropyridine-3-carboxylic acid] | < 1 | 3.5 to 12.5 (≈ 8.23 to 29.4 µM) | 1 to 3.5 (≈ 2.35 to 8.23 µM) | 12.5 to 150 (≈ 29.4 to 353 µM) | 12.5 to 150 (≈ 29.4 to 353 µM) | 12.5 to 150 (≈ 29.4 to 353 µM) | 12.5 to 150 (≈ 29.4 to 353 µM) |  |  |  | 
9 | CCc1c(-c2ccc3c(c2)cc(CN(C)C2CCNCC2)n3C)[nH]c(=O)c(C(=O)O)c1O [Cpd 261, 5-ethyl-4-hydroxy-6-(1-methyl-2-((methyl(piperidin-4-yl)amino)methyl)-1H-indol-5-yl)-2-oxo-1,2-dihydropyridine-3-carboxylic acid] | 1 to 3.5 (≈ 2.28 to 7.98 µM) | 12.5 to 150 (≈ 28.5 to 342 µM) | 3.5 to 12.5 (≈ 7.98 to 28.5 µM) | 3.5 to 12.5 (≈ 7.98 to 28.5 µM) | 12.5 to 150 (≈ 28.5 to 342 µM) | 12.5 to 150 (≈ 28.5 to 342 µM) | 12.5 to 150 (≈ 28.5 to 342 µM) |  |  |  | 
10 | CCc1c(-c2ccc3c(c2)c(C#N)c(OC)n3C)[nH]c(=O)c(C(=O)O)c1O [Cpd 362, 6-(3-cyano-2-methoxy-1-methyl-1H-indol-5-yl)-5-ethyl-4-hydroxy-2-oxo-1,2-dihydropyridine-3-carboxylic acid] | 1 to 3.5 (≈ 2.72 to 9.53 µM) | 3.5 to 12.5 (≈ 9.53 to 34 µM) | 12.5 to 150 (≈ 34 to 408 µM) | 12.5 to 150 (≈ 34 to 408 µM) |  | 12.5 to 150 (≈ 34 to 408 µM) | 12.5 to 150 (≈ 34 to 408 µM) | 12.5 to 150 (≈ 34 to 408 µM) | 12.5 to 150 (≈ 34 to 408 µM) | 12.5 to 150 (≈ 34 to 408 µM) | 12.5 to 150 (≈ 34 to 408 µM)
11 | CCc1cc(C(=O)O)c(=O)[nH]c1-c1ccc2occc2c1 [Cpd 364, 6-(benzofuran-5-yl)-5-ethyl-2-oxo-1,2-dihydropyridine-3-carboxylic acid] | 1 to 3.5 (≈ 3.53 to 12.4 µM) | 12.5 to 150 (≈ 44.1 to 530 µM) | 12.5 to 150 (≈ 44.1 to 530 µM) | 12.5 to 150 (≈ 44.1 to 530 µM) |  | 12.5 to 150 (≈ 44.1 to 530 µM) | 12.5 to 150 (≈ 44.1 to 530 µM) | 12.5 to 150 (≈ 44.1 to 530 µM) | 12.5 to 150 (≈ 44.1 to 530 µM) | 12.5 to 150 (≈ 44.1 to 530 µM) | 12.5 to 150 (≈ 44.1 to 530 µM)
12 | CCc1c(-c2ccc3occc3c2)[nH]c(=O)c(C(=O)O)c1O [Cpd 365, 6-(benzofuran-5-yl)-5-ethyl-4-hydroxy-2-oxo-1,2-dihydropyridine-3-carboxylic acid] | < 1 | 3.5 to 12.5 (≈ 11.7 to 41.8 µM) | 12.5 to 150 (≈ 41.8 to 501 µM) | 3.5 to 12.5 (≈ 11.7 to 41.8 µM) |  | 3.5 to 12.5 (≈ 11.7 to 41.8 µM) | 12.5 to 150 (≈ 41.8 to 501 µM) | 12.5 to 150 (≈ 41.8 to 501 µM) | 12.5 to 150 (≈ 41.8 to 501 µM) | 1 to 3.5 (≈ 3.34 to 11.7 µM) | 12.5 to 150 (≈ 41.8 to 501 µM)
13 | CCc1cc(C(=O)O)c(=O)[nH]c1-c1ccc2sccc2c1 [Cpd 366, 6-(benzo[b]thiophen-5-yl)-5-ethyl-2-oxo-1,2-dihydropyridine-3-carboxylic acid] | < 1 | 12.5 to 150 (≈ 41.8 to 501 µM) | 3.5 to 12.5 (≈ 11.7 to 41.8 µM) | 12.5 to 150 (≈ 41.8 to 501 µM) |  | 12.5 to 150 (≈ 41.8 to 501 µM) | 12.5 to 150 (≈ 41.8 to 501 µM) | 12.5 to 150 (≈ 41.8 to 501 µM) | 12.5 to 150 (≈ 41.8 to 501 µM) | 12.5 to 150 (≈ 41.8 to 501 µM) | 12.5 to 150 (≈ 41.8 to 501 µM)
14 | CCc1c(-c2ccc3sccc3c2)[nH]c(=O)c(C(=O)O)c1O [Cpd 367, 6-(benzo[b]thiophen-5-yl)-5-ethyl-4-hydroxy-2-oxo-1,2-dihydropyridine-3-carboxylic acid] | < 1 | 1 to 3.5 (≈ 3.17 to 11.1 µM) | 12.5 to 150 (≈ 39.6 to 476 µM) | 3.5 to 12.5 (≈ 11.1 to 39.6 µM) |  | 12.5 to 150 (≈ 39.6 to 476 µM) | 12.5 to 150 (≈ 39.6 to 476 µM) | 12.5 to 150 (≈ 39.6 to 476 µM) | 12.5 to 150 (≈ 39.6 to 476 µM) | 3.5 to 12.5 (≈ 11.1 to 39.6 µM) | 12.5 to 150 (≈ 39.6 to 476 µM)
